Data reported in article PMC8344761 (Journal of Enzyme Inhibition and Medicinal Chemistry, 2021).

Key:
A-Raf = target: T1, A-Raf (Homo sapiens, UniProt P10398); assay: Raf kinase assay (Kinase HotSpot, Reaction Biology Corp.); type: biochemical
T1 sequence (P10398 1-606): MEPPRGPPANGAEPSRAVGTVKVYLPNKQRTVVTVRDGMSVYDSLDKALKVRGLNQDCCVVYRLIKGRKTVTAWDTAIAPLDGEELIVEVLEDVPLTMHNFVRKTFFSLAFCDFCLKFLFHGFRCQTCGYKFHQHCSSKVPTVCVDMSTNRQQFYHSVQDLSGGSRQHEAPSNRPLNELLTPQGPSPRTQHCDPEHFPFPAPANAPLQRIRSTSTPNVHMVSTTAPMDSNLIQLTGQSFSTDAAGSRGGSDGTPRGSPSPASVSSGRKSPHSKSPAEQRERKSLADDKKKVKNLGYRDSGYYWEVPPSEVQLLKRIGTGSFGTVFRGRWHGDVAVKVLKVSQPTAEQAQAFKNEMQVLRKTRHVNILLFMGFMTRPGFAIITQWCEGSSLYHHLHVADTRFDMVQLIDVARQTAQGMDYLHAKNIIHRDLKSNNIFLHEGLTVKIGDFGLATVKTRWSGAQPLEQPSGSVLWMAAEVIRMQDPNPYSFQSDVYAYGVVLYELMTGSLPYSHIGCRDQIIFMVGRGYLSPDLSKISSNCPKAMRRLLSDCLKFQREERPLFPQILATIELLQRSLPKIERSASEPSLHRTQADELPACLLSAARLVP

B-Raf = B-Raf (Homo sapiens, UniProt P15056); assay: as above; type: biochemical
B-Raf (V600E) = B-Raf (V600E) (Homo sapiens, UniProt P15056, V600E); assay: as above; type: biochemical
C-Raf = C-Raf (Homo sapiens, UniProt P04049); assay: as above; type: biochemical
VEGFR-2 tyrosine kinase = target: T2, VEGFR-2 tyrosine kinase (Homo sapiens, UniProt P35968); assay: VEGFR-2 (KDR) kinase assay (ADP-glow); type: biochemical; conditions: fixed concentration 1 µM; read-out: inhibitory activity against VEGFR-2 tyrosine kinase
T2 construct: purchased Promega

Hep3B = assay: Cell proliferation assay (MTT); type: cell-based; conditions: Homo sapiens, 48 h, mean ± SEM of three independent experiments, read-out: Cancer cell proliferation IC50 Hep3B
Protocol: (§1) Hepatocellular carcinoma cell lines (HepG2, Huh7), human pancreatic ductal epithelial cell line (H6c7), and normal human colon cell line (CCD841) were obtained from the American Type Culture Collection (ATCC) (Manassas, VA, USA). Cells were cultured in DMEM/High Glucose media (Hep3B, Huh7, CCD841) or MEM/EBSS media (HepG2) containing 10% FBS, 100 IU/ml of penicillin and 100 µg/ml of streptomycin. H6c7 cells were cultured in keratinocyte serum free media supplemented with epidermal growth factor and bovine pituitary extract. Cells were maintained in 5% CO2 humidified atmosphere at 37 °C.
(§2) Cells were seeded in a 96-well plate and allowed to adhere for 24 h. The cells were serum starved in 1% serum containing medium for 12 h, and then treated with drugs in 10% serum-containing medium. After incubation for 48 h, cell proliferation was measured using MTT assay. Optical density was measured at 540 nm using a Spectrostar Nano microplate reader (BMG LABTECH GmbH, Ortenberg, Germany).

HepG2 = assay: Cell proliferation assay (MTT); type: cell-based; conditions: Homo sapiens, 48 h, mean ± SEM of three independent experiments, read-out: Cancer cell proliferation IC50 HepG2
Protocol: as §1, §2

Huh7 = assay: Cell proliferation assay (MTT); type: cell-based; conditions: Homo sapiens, Huh-7, 48 h, mean ± SEM of three independent experiments, read-out: Cancer cell proliferation IC50 Huh7
Protocol: as §1, §2

[1] = Cytotoxicity assay (MTT), normal cells; type: cell-based, human; conditions: human, mean ± SEM
Protocol: as §1
Cells were seeded in a 96-well plate and allowed to adhere for 24 h. Cells in low serum (1%)-containing medium were treated with drugs for 48 h. In case of H6c7 cells, cells in keratinocyte serum free media were treated with drugs for 48 h. Then, cell viability was measured using MTT assay. Optical density was measured at 540 nm using a Spectrostar Nano microplate reader (BMG LABTECH).

Hep3B cells = assay: Sphere formation assay; type: cell-based; conditions: Homo sapiens, 48 h drug treatment, 13 days culture, read-out: % Inhibition of sphere forming Hep3B
Protocol: (§3) Sphere forming ability of Hep3B and Huh7 cells were examined after incubation with drugs for 48 h. Briefly, 3 × 10^3 cells which were pre-treated with or without drugs in prEGM media (Lonza, Basel, Switzerland) were seeded on an ultra-low adhering 24 well plate (Corning Incorporated Costar, Corning, NY). Twice a week, 500 µL of used medium was replaced with fresh prEGM media. At 13 days after plating, images of spheres were captured using Celloger Mini (Curiosis Inc., Seoul, South Korea). The number of spheroids over 50 µm in diameter was counted by using Image J software (National Institute of Health, Bethesda, MD).

Huh7 cells = assay: Sphere formation assay; type: cell-based; conditions: Homo sapiens, Huh-7, 48 h drug treatment, 13 days culture, read-out: % Inhibition of sphere forming Huh7
Protocol: as §3

[2] = fixed concentration 1 μM, mean of two independent experiments
[3] = fixed concentration 1 μM, mean of two independent experiments, 1 µM

Sequence of B-Raf (P15056 whole entry): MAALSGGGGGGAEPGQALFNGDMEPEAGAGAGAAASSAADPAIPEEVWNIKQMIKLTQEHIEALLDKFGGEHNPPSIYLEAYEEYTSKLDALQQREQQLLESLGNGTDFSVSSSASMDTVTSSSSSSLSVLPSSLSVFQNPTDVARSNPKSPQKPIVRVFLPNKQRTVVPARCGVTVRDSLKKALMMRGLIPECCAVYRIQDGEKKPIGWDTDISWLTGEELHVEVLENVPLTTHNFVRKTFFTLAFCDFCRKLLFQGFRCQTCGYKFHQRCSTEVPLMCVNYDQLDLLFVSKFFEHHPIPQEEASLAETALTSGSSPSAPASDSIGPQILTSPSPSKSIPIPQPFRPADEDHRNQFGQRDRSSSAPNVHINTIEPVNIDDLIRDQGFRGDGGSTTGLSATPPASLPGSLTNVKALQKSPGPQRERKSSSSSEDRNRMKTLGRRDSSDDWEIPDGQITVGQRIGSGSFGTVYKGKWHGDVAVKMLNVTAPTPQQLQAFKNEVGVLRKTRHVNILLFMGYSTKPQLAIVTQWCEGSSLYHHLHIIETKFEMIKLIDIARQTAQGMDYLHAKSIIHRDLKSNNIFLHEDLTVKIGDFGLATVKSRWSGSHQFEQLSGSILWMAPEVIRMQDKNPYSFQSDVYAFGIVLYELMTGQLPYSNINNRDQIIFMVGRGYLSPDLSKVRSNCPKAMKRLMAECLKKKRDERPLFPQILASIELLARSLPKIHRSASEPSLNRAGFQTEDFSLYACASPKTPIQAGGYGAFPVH
Sequence of C-Raf (P04049 whole entry): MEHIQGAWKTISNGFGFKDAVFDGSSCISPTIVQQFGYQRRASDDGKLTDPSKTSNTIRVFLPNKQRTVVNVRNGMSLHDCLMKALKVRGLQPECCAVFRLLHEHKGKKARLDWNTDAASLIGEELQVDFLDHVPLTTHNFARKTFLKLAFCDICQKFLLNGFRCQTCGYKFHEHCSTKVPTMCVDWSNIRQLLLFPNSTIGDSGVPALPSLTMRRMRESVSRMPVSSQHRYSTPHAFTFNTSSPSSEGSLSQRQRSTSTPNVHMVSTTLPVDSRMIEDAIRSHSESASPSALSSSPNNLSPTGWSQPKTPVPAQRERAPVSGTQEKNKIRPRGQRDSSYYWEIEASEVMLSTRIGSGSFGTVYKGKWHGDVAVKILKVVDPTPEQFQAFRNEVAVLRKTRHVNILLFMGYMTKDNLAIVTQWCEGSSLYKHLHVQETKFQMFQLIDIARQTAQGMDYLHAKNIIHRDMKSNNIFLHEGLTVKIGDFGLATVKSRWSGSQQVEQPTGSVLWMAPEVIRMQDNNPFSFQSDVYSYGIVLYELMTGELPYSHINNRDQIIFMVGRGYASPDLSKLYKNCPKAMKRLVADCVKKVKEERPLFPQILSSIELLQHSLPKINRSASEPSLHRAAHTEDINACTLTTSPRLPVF
Sequence of B-Raf (V600E) (P15056 whole entry V600E): as the sequence (P15056 whole entry) above, with V600E counted along it
T2 sequence (P35968 20-1356): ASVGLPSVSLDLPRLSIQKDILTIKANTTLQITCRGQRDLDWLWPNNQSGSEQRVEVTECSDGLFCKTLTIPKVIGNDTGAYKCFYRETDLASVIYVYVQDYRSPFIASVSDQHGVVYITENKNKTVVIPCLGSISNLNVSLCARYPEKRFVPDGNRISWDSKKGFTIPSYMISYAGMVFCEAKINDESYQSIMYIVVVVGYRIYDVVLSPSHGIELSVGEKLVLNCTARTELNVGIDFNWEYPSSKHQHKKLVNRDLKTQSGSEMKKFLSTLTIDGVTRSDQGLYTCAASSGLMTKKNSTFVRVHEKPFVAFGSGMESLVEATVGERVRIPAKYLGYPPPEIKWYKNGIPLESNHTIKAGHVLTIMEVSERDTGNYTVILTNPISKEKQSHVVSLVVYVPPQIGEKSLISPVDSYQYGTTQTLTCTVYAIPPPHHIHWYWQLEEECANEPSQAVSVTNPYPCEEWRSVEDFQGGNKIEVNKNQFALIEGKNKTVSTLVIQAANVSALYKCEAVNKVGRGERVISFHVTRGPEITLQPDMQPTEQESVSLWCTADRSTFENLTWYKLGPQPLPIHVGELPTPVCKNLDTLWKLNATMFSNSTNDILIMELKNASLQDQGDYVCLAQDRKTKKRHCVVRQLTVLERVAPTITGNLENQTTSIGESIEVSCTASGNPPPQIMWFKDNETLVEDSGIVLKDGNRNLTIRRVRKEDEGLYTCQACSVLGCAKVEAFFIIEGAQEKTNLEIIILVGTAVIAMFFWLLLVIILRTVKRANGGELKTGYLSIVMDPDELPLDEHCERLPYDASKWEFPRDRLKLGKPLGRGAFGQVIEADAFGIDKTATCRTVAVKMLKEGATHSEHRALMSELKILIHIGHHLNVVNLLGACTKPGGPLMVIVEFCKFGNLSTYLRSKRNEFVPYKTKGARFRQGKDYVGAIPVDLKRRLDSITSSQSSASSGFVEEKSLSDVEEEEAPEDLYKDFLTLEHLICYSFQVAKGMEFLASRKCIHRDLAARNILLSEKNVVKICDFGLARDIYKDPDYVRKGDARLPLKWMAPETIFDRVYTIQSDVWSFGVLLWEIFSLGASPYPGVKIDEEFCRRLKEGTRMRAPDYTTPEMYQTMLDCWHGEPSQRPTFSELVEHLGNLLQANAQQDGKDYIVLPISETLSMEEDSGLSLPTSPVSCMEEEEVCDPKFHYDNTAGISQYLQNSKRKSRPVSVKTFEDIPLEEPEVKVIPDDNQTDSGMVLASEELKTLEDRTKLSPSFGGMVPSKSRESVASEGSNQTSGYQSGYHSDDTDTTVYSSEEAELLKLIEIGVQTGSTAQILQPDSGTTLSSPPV

inhibition at 1 µM (A-Raf; [2]): 56%
IC50 (A-Raf; mean ± SD of two independent experiments, read-out: In vitro Raf kinase inhibition IC50 A-Raf): 0.312 ± 0.0259 µM
inhibition at 1 µM (B-Raf; [2]): 11.6%
Inhibition (%) B-Raf (B-Raf; [3]): 12%
IC50 (B-Raf; mean ± SD of two independent experiments, read-out: In vitro Raf kinase inhibition IC50 B-Raf): 5.86 µM
inhibition at 1 µM (B-Raf (V600E); fixed concentration 1 μM, mean of two independent experiments, B-Raf (V599E)): 56.1%
IC50 (B-Raf (V600E); mean ± SD of two independent experiments, read-out: In vitro Raf kinase inhibition IC50 B-Raf(V600E)): 0.65 ± 0.0023 µM
Inhibition (%) C-Raf (C-Raf; [3]): 84%
inhibition at 1 µM (C-Raf; fixed concentration 1 μM, mean of two independent experiments, read-out: Inhibition (%) C-Raf): 84.3%
IC50 (C-Raf; mean ± SD of two independent experiments, read-out: In vitro Raf kinase inhibition IC50 C-Raf): 0.08 ± 0.0081 µM
inhibition at 1 µM (VEGFR-2 tyrosine kinase): ~32%
IC50 (Hep3B): 6.23 ± 0.07 µM
IC50 (HepG2): 6.98 ± 0.08 µM
IC50 (Huh7): 5.29 ± 0.11 µM
melting point: 265 °C
SMILES: CNC(=O)c1cc(Oc2c(C)nc(NC(=O)Nc3ccc(Cl)c(C(F)(F)F)c3)c(C)c2C)ccn1 [Compound 4, 4-((6–(3-(4-Chloro-3-(trifluoromethyl)phenyl)ureido)-2,4,5-trimethylpyridin-3-yl)oxy)-N-methylpicolinamide]
CC50 at 48 h ([1]; CCD841 cells (normal colon epithelial cell line)): > 10 µM
CC50 at 48 h ([1]; H6c7 cells (normal pancreatic ductal epithelial cell line)): > 10 µM
inhibition at 1 µM (Hep3B cells; 1 μM): 30.8%
inhibition at 10 µM (Hep3B cells; 10 μM): 50.6%
inhibition at 1 µM (Huh7 cells; 1 μM): 31.6%
inhibition at 10 µM (Huh7 cells; 10 μM): 50.5%
